The target of data set [1] is T1, bovine adrenal DBH (Bos taurus, UniProt P15101).
T1 sequence (P15101 1-610): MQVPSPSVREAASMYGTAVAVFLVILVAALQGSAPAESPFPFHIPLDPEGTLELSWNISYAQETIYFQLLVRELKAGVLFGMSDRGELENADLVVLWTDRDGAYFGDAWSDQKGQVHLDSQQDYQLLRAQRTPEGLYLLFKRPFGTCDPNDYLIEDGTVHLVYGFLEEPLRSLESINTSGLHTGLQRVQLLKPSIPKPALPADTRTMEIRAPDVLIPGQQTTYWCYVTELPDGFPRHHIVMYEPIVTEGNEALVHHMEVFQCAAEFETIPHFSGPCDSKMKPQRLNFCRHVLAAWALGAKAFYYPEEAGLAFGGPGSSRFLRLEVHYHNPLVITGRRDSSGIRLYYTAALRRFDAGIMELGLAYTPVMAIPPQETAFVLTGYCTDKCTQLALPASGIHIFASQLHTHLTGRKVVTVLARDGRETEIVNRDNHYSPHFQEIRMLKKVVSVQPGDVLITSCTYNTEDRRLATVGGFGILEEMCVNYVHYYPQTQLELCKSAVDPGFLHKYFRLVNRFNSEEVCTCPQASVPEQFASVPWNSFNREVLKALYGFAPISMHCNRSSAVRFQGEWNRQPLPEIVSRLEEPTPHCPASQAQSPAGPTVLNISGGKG
Kind of data set: DBH inhibition assay in vitro. It is filed as biochemical.

Data set [2] has as its system neural stem cells. Particulars: ref Guan et al., 2009; cited from earlier work.
Data set [3] has as its target T2, MAO-B (rat liver mitochondrial MAO) (Rattus norvegicus, UniProt P19643).
T2 sequence (P19643 1-520): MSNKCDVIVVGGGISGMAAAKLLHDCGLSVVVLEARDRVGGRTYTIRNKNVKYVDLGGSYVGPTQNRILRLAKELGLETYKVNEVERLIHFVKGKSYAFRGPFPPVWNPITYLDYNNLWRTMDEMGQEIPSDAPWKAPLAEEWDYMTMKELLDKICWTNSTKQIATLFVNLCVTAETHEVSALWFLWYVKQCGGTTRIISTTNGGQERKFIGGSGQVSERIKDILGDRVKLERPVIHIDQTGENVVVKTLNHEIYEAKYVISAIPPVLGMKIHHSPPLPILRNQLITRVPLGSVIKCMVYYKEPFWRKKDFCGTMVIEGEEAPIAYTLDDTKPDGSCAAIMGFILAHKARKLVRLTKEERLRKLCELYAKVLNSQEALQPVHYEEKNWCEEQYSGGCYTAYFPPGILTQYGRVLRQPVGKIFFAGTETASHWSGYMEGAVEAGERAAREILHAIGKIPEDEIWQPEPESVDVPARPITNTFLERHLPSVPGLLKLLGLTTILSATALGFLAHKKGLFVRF
As to the kind of experiment: MAO-B inhibition assay in vitro. It is filed as biochemical.

Data set [4] addresses T3, MAO-A (rat brain mitochondrial MAO) (Rattus norvegicus, UniProt P21396).
T3 sequence (P21396 1-526): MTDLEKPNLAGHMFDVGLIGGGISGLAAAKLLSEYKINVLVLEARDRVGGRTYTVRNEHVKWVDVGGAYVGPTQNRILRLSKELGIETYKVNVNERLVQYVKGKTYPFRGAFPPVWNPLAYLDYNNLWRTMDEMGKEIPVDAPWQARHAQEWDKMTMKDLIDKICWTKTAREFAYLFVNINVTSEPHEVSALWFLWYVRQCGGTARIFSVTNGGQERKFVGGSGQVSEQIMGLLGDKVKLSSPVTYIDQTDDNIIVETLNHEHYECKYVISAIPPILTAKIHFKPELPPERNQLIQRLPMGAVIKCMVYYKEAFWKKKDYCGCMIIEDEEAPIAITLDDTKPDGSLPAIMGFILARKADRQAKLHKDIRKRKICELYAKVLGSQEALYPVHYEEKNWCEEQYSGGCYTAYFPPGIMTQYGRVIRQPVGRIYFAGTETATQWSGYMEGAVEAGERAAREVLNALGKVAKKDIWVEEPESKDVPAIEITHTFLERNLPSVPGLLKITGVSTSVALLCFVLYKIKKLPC
Kind of data set: MAO-A inhibition assay in vitro. Type of data set: biochemical.

The conditions of data set [5]: isolated geniposide; ref Hou et al., 2008; Lu et al., 2011; cited from earlier work.
Where [6] appears, read: IC50 value DBH, Table 1, 120 mM tyramine substrate.
[7] abbreviates: read-out: DBH inhibitory activity.
Setting [8] is: read-out: MAO-B inhibitory activity.
Setting [9] is: IC50 value MAO-A, Table 1, 1 mM serotonin substrate.
[10] abbreviates: read-out: MAO-A inhibitory activity.

In general, IC50 refers to the concentration that gives 50% inhibition. Higher therefore signals lower potency. As for `O=C(O)c1ccc(O)c(O)c1` [Compound 1, protocatechuic acid], the IC50 in data set [1] (setting [6]) was determined as 334 µM; in data set [3], 300 µM; in data set [4] (IC50 MAO-A (abstract)), 2410 µM; in data set [4] (setting [9]) it was 2410 µM. For the same compound, the values for the inhibition at 50 µg/mL in data set [1] (setting [7]), in data set [3] (setting [8]) and in data set [4] (setting [10]) were 49.2 ± 3.1%, 50.4 ± 5.9% and 7.3 ± 2.6%, respectively. The results for the inhibition at 100 µg/mL in data set [1] (setting [7]), in data set [3] (setting [8]) and in data set [4] (setting [10]) were 64.1 ± 6.8%, 71.6 ± 9.3% and 12.8 ± 4.8%, respectively. Further, the inhibition at 500 µg/mL came out at 97.2 ± 2% in data set [1] (setting [7]), 108 ± 1.3% in data set [3] (setting [8]) and 67.4 ± 5.2% in data set [4] (setting [10]). Further, the “Apoptosis of neural stem cells” value in data set [2] is “inhibit apoptosis”. In addition, in data set [2], the “Proliferation of neural stem cells” value is “increase proliferation”. In addition, in data set [3] (from Table 1), the “Specific activity on MAO-B relative to that on MAO-A” value was “about 8 times”.
In the case of `COC(=O)C1=CO[C@@H](O[C@@H]2O[C@H](CO)[C@@H](O)[C@H](O)[C@H]2O)[C@@H]2C(CO)=CC[C@H]12` [Compound 2, geniposide], the IC50 in data set [1] (setting [6]) was over 12900 µM. In addition, the Absorption percentage result in data set [5] is given as “very low”. Also, the IC50 in data set [3] was 223 µM. Moreover, in data set [3] (setting [8]), the inhibition at 4 µg/mL came out at 9.2 ± 1.2%, the inhibition at 20 µg/mL amounted to 16 ± 0.6%, the inhibition at 50 µg/mL was found to be 42.8 ± 2.2% and the inhibition at 100 µg/mL was determined as 52.2 ± 1.5%. The IC50 in data set [4] (setting [9]) is over 12900 µM.
With `C[C@H]1[C@H](C)CC[C@]2(C(=O)O)CC[C@]3(C)C(=CC[C@@H]4[C@@]5(C)CC[C@H](O)C(C)(C)[C@@H]5CC[C@]43C)[C@H]12` [Compound 5, ursolic acid], the IC50 in data set [1] (IC50 DBH) was 215 µM; in data set [1] (setting [6]) it was 214 µM; in data set [3], 780 µM; in data set [4] (setting [9]), over 11000 µM. Moreover, the inhibition at 2 µg/mL in data set [1] (setting [7]) is 18.2 ± 7.6%. Further, in data set [1] (setting [7]), the inhibition at 10 µg/mL was found to be 20.8 ± 10.7%. In addition, the inhibition at 50 µg/mL in data set [1] (setting [7]) came to 33.2 ± 6.9%; in data set [3] (setting [8]), 17.1 ± 1.1%. The inhibition at 100 µg/mL in data set [1] (setting [7]) stood at 51.2 ± 5.9%; in data set [3] (setting [8]), 28.7 ± 8%. For the same compound, the “MAO-A inhibition (in words)” value in data set [4] is reported as “no inhibition”.

Source of the values: article PMC3792221 (Biomolecules & Therapeutics, 2012).
